Measured values: US20230255939A1, “Antimicrobial Agent for Non-Human Animal” (ISHIHARA SANGYO KAISHA, LTD, priority 2020, published 2023)

Tested on: Malassezia pachydermatis (ATCC14522 strain)
Assay: Malassezia otitis externa effect test (dog) (Test Example 3)
Assay type: in vivo, dog (Beagle)
Set-up: Total score (redness, earwax, itching, rash) Immediately before treatment / Total score (redness, earwax, itching, rash) 7 Days after treatment: scale not given here
Conditions: for Microbial count (cfu/ml) 7 Days after treatment: 500 ppm agent solution for 1 minute; for Microbial count (cfu/ml) Immediately before treatment: baseline before 500 ppm agent solution; for Total score (redness, earwax, itching, rash) 7 Days after treatment: 5 mL of 500 ppm agent solution for 1 minute; for Improvement rate (%) of microbial count / Improvement rate (%) of symptom total score: 500 ppm for 1 minute, 7 days after treatment; for Total score (redness, earwax, itching, rash) Immediately before treatment: baseline 7 days after inoculation, before 500 ppm agent solution
Method: Test Example 3: Malassezia Otitis Externa Effect Test (Dog) Test Variety: Beagle (19 to 20-Month-Old)
Test Microbial Strain: Malassezia Pachydermatis (ATCC14522 Strain)
A colony of the Malassezia microbe pre-cultured (7 days, 30° C.) on a Sabouraud agar medium was suspended in sterilized physiological saline (microbial concentration of 1.0 × 10^6 cells/mL), and 0.1 mL of the resulting suspension was inoculated into both ears of the test animal. 7 Days after the inoculation, both ears were filled with 5 mL of an agent solution (sterilized physiological saline solution supplemented with 5% DMSO) prepared to have a concentration of the test compound of 500 ppm, and after 1 minute, thoroughly washed with sterilized physiological saline solution.
At the same time, the number of the Malassezia microbe present inside the ears of the sample was also investigated by the following method.
The surface of the ear canal was scraped three times using a cotton swab to collect the microbe, and the collected microbe was suspended in 1 mL of PBS (containing 8 g of sodium chloride, 2.9 g of disodium hydrogen phosphate, 0.2 g of potassium chloride, and 0.2 g of potassium dihydrogen phosphate in 1000 mL) supplemented with 1% v/v of Tween80 (polyoxyethylene sorbitan monooleate: manufactured by Kanto Chemical Co., Ltd.) together with the cotton swab. The resulting suspension was serially diluted 10-fold with the PBS, and 0.1 mL thereof was applied to a CHROMagar Malassezia/Candida medium (trade name; peptone, special enzyme substrate mixture, chloramphenicol, olive oil, agar) and cultured at 30° C. for 4 days. After that, the colonies having a pink to purple color were counted, the microbial count score was calculated, and the improvement rate was determined.

SMILES	Microbial count (cfu/ml) 7 Days after treatment (left ear canal swab)	Microbial count (cfu/ml) Immediately before treatment (left ear canal swab)	Total score (redness, earwax, itching, rash) 7 Days after treatment (left ear)	Improvement rate (%) of microbial count (left ear)	Improvement rate (%) of symptom total score (left ear)	Total score (redness, earwax, itching, rash) Immediately before treatment (left ear)	Microbial count (cfu/ml) 7 Days after treatment (right ear canal swab)	Microbial count (cfu/ml) Immediately before treatment (right ear canal swab)	Total score (redness, earwax, itching, rash) 7 Days after treatment (right ear)	Improvement rate (%) of microbial count (right ear)	Improvement rate (%) of symptom total score (right ear)	Total score (redness, earwax, itching, rash) Immediately before treatment (right ear)
Cc1ccc(-c2nc(C#N)n(O)c2Cl)cc1 [Compound No. 9, 5-chloro-1-hydroxy-4-(4-methylphenyl)-1H-imidazole-2-carbonitrile]	20 cfu/ml	1,100 cfu/ml	1	98.2%	67%	3	30 cfu/ml	1,600 cfu/ml	1	98.1%	67%	3
Cc1cc(-c2nc(C#N)[nH]c2Cl)ccc1Cl [Compound No. 7, 5-chloro-4-(4-chloro-3-methylphenyl)-1H-imidazole-2-carbonitrile]	20 cfu/ml	480 cfu/ml	0	95.8%	100%	3	30 cfu/ml	160 cfu/ml	0	81.3%	100%	3
